This is an account of results in publication PMC12040169 (PLOS Biology, 2025).

The nature of the data set: in vitro. Particulars: human, hela cells, % viability.

Regarding `Cc1cc2c(cc3c(=O)n(CC(=O)N4CCCCCC4)nc(C)n32)o1` [CBK283591], the viability at 28.5 h, 10 µM amounted to 103%.

`O=C1c2ccccc2C(=O)N1CN(CCc1ccc(Cl)cc1)CN1C(=O)c2ccccc2C1=O` [CBK225934]: the viability at 28.5 h, 10 µM came to 90.8%. For `S=c1nc(-c2ccccc2)n(-c2ccccc2)[nH]1` [CBK288474], the viability at 28.5 h, 10 µM worked out at 103%. Turning to `CN(C)c1ncc(-c2ccc(Cl)cc2)c(C2CCCN2C(=O)CN2CCCC2)n1` (centres unmarked) [CBK286037], the viability at 28.5 h, 10 µM is 99.2%. With `COCCN1C(=O)C2(CC(=O)N(Cc3ccccc3)C2=O)c2cc(OC)ccc21` (centres unmarked) [CBK075177], the viability at 28.5 h, 10 µM came to 92.5%. On to `O=c1oc(-c2ccncc2)nn1Cc1ccccc1F` [CBK283692], for which the viability at 28.5 h, 10 µM came out at 89.1%. The same measure, in the same setting: as for `COc1ccc(CCNC(=O)c2ccccc2N(C)S(C)(=O)=O)cc1` [CBK266833], the figure is 104%; as for `O=C(CCCc1nc(-c2ccccc2Cl)no1)NCc1cccnc1` [CBK269516], 77.8%; as for `O=C(O)c1cc(S(=O)(=O)Nc2ccc3nc(N4CCCC4)sc3c2)ccc1Br` [CBK296710], 91.5%. Regarding `COc1cc(CN2CCNCC2)c2ccn(S(=O)(=O)c3ccccc3C#N)c2c1` [CBK144486T], the viability at 28.5 h, 10 µM was determined as 89.4%.

As to `CN(C)CC(=O)Nc1ccc2n(c1=O)C[C@H]1C[C@@H]2CN(Cc2ccccn2)C1` [CBK289206], the viability at 28.5 h, 10 µM was determined as 107%. On to `O=C(Cc1ccc(F)cc1Cl)N1CCn2c(nnc2C2CC2)C1` [CBK283773], for which the viability at 28.5 h, 10 µM was 87.8%. On the same count and under the same terms, in the case of `Cc1cc(C(=O)N2CCN(c3ncccn3)CC2)n[nH]1` [CBK144526] it was 111%. Regarding `O=C(Cn1cc(C(=O)c2ccco2)c2ccccc21)NCCc1c[nH]c2ccccc12` [CBK267509], the viability at 28.5 h, 10 µM (bulk resorufin, single well) is 97.9%.

On to `CCN(CCCNC(=O)c1cc(-c2cccnc2)nc2ccccc12)c1cccc(C)c1` [CBK294465], for which the viability at 28.5 h, 10 µM is 86.7%. Same read-out and setting: in the case of `O=C(c1cn(-c2cc(Nc3ccccc3)ncn2)cn1)N1CCOCC1` [CBK288610] it was 103%; in that of `COc1ccc(CC(=O)Nc2cccc(OC(F)(F)F)c2)cc1OC` [CBK296734], 88.1%; in that of `CCN(CC)C(=O)c1sccc1NS(=O)(=O)c1cc(Br)c(Cl)s1` [CBK004599], 98.3%. On to `O=C(NCCc1c[nH]c2ccc(Cl)cc12)c1cc(F)c(Cl)cc1F` [CBK159763], for which the viability at 28.5 h, 10 µM is 93.6%. On to `CCOc1cc(/C=N\NC(=O)CNc2ccccc2C)cc(Br)c1O` [CBK262151], for which the viability at 28.5 h, 10 µM turned out to be 86.5%.

Turning to `CN(C)CCCNC(=S)Nc1ccc(Cl)cc1Cl` [CBK264183], the viability at 28.5 h, 10 µM turned out to be 92.5%. On the same count and under the same terms, as for `CCn1c(COc2cccc3cccnc23)nnc1SCC(=O)c1ccc(F)cc1` [CBK265656], the figure is 86.8%; as for `CC(=O)Nc1ccc(Oc2cc(C)nc(C3CCNCC3)c2)cc1` [CBK283468], 86.5%. For the molecule `Cc1ncc(CN(Cc2ccccn2)Cc2ccccc2Cl)n1C` [CBK282128], the viability at 28.5 h, 10 µM turned out to be 97.6%. Turning to `O=C(Nc1ccc(F)cc1F)Nc1cc(Cl)sc1Cl` [CBK019967], the viability at 28.5 h, 10 µM stood at 102%. `OC(CN1CCC(O)(c2ccc(C(F)(F)F)cc2)CC1)c1ccccc1` (centres unmarked) [CBK286323]: the viability at 28.5 h, 10 µM is 102%. On to `Cn1c2ccccc2c2nnc(SCCc3ccccc3)nc21` [CBK267986], for which the viability at 28.5 h, 10 µM was 109%. Regarding `Cc1cc2cc(C(=O)NCCCN3Cc4ccccc4C3)ccc2o1` [CBK282624], the viability at 28.5 h, 10 µM was determined as 97.4%. With `Cc1cccnc1NS(=O)(=O)c1cccs1` [CBK299775], the viability at 28.5 h, 10 µM is 80.6%. With `O=C(O)/C=C/c1cccc(-c2cn3ccnc3c(N3CCN(c4ccncc4)CC3)n2)c1` [CBK066326], the viability at 28.5 h, 10 µM stood at 94.8%. `CC(c1ccc(Cl)cc1Cl)N(C)C(=O)c1ccc(S(C)(=O)=O)cc1` (centres unmarked) [CBK242418]: the viability at 28.5 h, 10 µM was found to be 113%. As to `O=C(NCCN1CCCCC1)C1CC(=O)N(Cc2ccccc2)C1` (centres unmarked) [CBK305150], the viability at 28.5 h, 10 µM was found to be 96.5%. In the case of `c1ccc(SCCCSc2ccccn2)cc1` [CBK021704], the viability at 28.5 h, 10 µM was found to be 87%.

In the case of `COc1ccc(C)cc1S(=O)(=O)N(C)CC(=O)O` [CBK267863], the viability at 28.5 h, 10 µM stood at 106%. In the case of `Cc1cc(C(=O)Nc2ccc3ncccc3c2)ccc1Cl` [CBK159804], the viability at 28.5 h, 10 µM was 88.8%. Regarding `CC1CCC(C(N)=O)CN1C(=O)c1ccc(Oc2cccc(Br)c2)nc1` (centres unmarked) [CBK306005], the viability at 28.5 h, 10 µM is 106%. As to `NCC1OCCc2ccccc21` (centres unmarked) [CBK027717], the viability at 28.5 h, 10 µM was found to be 108%. `CCOC(=O)C(CNS(=O)(=O)c1ccc(F)cc1C)Cc1ccccc1` (centres unmarked) [CBK305427]: the viability at 28.5 h, 10 µM was 92.3%. Still for that read-out and setting: in the case of `COC1(CNC(=O)c2cc3ccccc3[nH]2)CCSC1` (centres unmarked) [CBK304605] it was 97.9%.

On to `O=C(O)c1ccc(/C=N/NC(=O)c2ccco2)cc1` [CBK263569], for which the viability at 28.5 h, 10 µM worked out at 90.5%. With `N#Cc1cc(Nc2ccc(Cc3ccncc3)cc2)c([N+](=O)[O-])cc1C#N` [CBK264090], the viability at 28.5 h, 10 µM is 93.9%. As for `CCN1CCN(C(=O)CN(CC)S(=O)(=O)c2ccc(Cl)cc2)CC1` [CBK268461], the viability at 28.5 h, 10 µM was 88.4%. The same measure, in the same setting: in the case of `CCN1CCN(CCOc2c(OC)cccc2OC)CC1` [CBK267375G] it was 96.9%.

In the case of `CS(=O)(=O)N1CCN(c2ccc(NC(=O)c3ccc(-c4cccc([N+](=O)[O-])c4)o3)cc2)CC1` [CBK268602], the viability at 28.5 h, 10 µM amounted to 98.6%. On to `C#CCNC(=O)C1CCN(c2nc3ccccc3n2CC=C)CC1` [CBK283925], for which the viability at 28.5 h, 10 µM is 95.4%. As to `CC(=O)c1cc(C#N)c(SCC(=O)O)nc1C` [CBK270189], the viability at 28.5 h, 10 µM was determined as 95.8%. Take `O=C1NC2=C(C(=O)N(CC3CCCO3)C2)C(c2cccc(F)c2)N1` (centres unmarked) [CBK282364]: the viability at 28.5 h, 10 µM amounted to 86.1%. With `COc1cc(/C=C2/C(=O)NC(=O)N(c3ccc(C)c(Cl)c3)C2=O)ccc1OC(C)C` [CBK265156], the viability at 28.5 h, 10 µM (bulk resorufin, single well) came to 118%. As for `O=C(Cn1ccc2ccnc(-c3cccs3)c21)NCc1ccncc1` [CBK284734], the viability at 28.5 h, 10 µM stood at 86.5%. For `O=C1NC(=O)N(c2cccc([N+](=O)[O-])c2)C(=O)/C1=C\c1ccccc1OCc1ccc(C(=O)O)cc1` [CBK265484], under “bulk resorufin, single well”, the viability at 28.5 h, 10 µM amounted to 106%. Turning to `CCCNS(=O)(=O)c1cc2c3c(c1)c(C)cc(=O)n3CCC2` [CBK307547], the viability at 28.5 h, 10 µM turned out to be 97.1%. On the same count and under the same terms, in the case of `Cc1cc(-c2nccnc2NCc2cccc(Cl)c2)cc(C)c1O` [CBK036646] it was 87.4%; in that of `CC1CC1C(=O)N1CCCC(c2cc3cccnc3[nH]2)C1` (centres unmarked) [CBK282156], 80.3%; in that of `CC1COCC(C)N1c1ccc2nnc(-c3ccc(C(F)(F)F)cc3)n2n1` (centres unmarked) [CBK009548], 81.7%. With `CC(=O)N1CCc2sccc2C1c1ccccc1NC(=O)C1CC1` (centres unmarked) [CBK282903], the viability at 28.5 h, 10 µM came out at 95%. As to `CSc1nnc(-c2ccc(C(C)(C)C)cc2)n1Cc1ccco1` [CBK017071], the viability at 28.5 h, 10 µM came out at 92.1%. As to `O=S(=O)(Nc1cc(NCCCN2CCOCC2)c2occc2c1)c1ccccc1C(F)(F)F` [CBK067838C], the viability at 28.5 h, 10 µM is 94.9%. As for `CN(C)Cc1ccc(C(=O)N2CCCC2(C)C(=O)N(C)C)cc1` (centres unmarked) [CBK281955], the viability at 28.5 h, 10 µM was 90%.

`CC(=O)N1CCN(C(=O)NC(C)C)C[C@@H]1C(=O)N[C@@H](CC1CCCCC1)C(N)=O` [CBK289633]: the viability at 28.5 h, 10 µM amounted to 91.8%. The same measure, in the same setting: in the case of `Cc1ccc(S(=O)(=O)NC(=O)N(Cc2ccccc2)Cc2ccco2)cc1` [CBK269524] it was 93%; in that of `Cn1cc(C(O)CNC(=O)NCCc2csc3ccccc23)cn1` (centres unmarked) [CBK305219], 95.2%; in that of `CCCCN(C)c1c(CC)nc2ccc(C(=O)Nc3ccc(OC)c(OC)c3)cn12` [CBK145445], 95.5%.

Consider `N[C@H](CSCc1ccccc1)C(=O)Nc1ccc([N+](=O)[O-])cc1` [CBK074824], for which the viability at 28.5 h, 10 µM is 88.8%. Consider `CCN(CC)C(=O)c1ccccc1NS(=O)(=O)c1ccc(OC)c(OC)c1` [CBK045423], for which the viability at 28.5 h, 10 µM came out at 92.6%.

`CCN1CCN(C(=O)CN(Cc2ccc(Cl)cc2)S(C)(=O)=O)CC1` [CBK269263]: the viability at 28.5 h, 10 µM stood at 82.8%.

For `COCCN1C(=O)C2(CC(=O)N(CC3CCCCC3)C2=O)c2ccccc21` (centres unmarked) [CBK075355], the viability at 28.5 h, 10 µM is 97.8%. With `COC(=O)c1ccc(NS(=O)(=O)Cc2ccccc2)cc1` [CBK028699], the viability at 28.5 h, 10 µM was 91.4%. Consider `Cc1nc2[nH]c(=O)nc(N)c2nc1C` [CBK025658], for which the viability at 28.5 h, 10 µM turned out to be 83.3%. `CCn1ncnc1CN1CCOc2ccc(CO)cc2C1` [CBK307245]: the viability at 28.5 h, 10 µM was determined as 80.7%. With `CCCN(CC1CCCO1)C(=O)c1cc2ccc(OC)cc2n1C` (centres unmarked) [CBK282139], the viability at 28.5 h, 10 µM turned out to be 92.8%. On to `O=C(Cc1ccc(Cl)c(Cl)c1)Nc1ccccc1-c1ccc2c(c1)COC1(CCNCC1)O2` [CBK107890], for which the viability at 28.5 h, 10 µM (bulk resorufin, single well) was 100%. Turning to `CN1CCN(c2cc(N3CCN(C)CC3)c([N+](=O)[O-])cc2C2Nc3ccc4ccccc4c3C3=C2C(=O)CC(C)(C)C3)CC1` (centres unmarked) [CBK262381], the viability at 28.5 h, 10 µM came to 93.9%.

Turning to `CCC(C)c1nnc(C2(c3ccc(Br)cc3)CCOCC2)o1` (centres unmarked) [CBK306229], the viability at 28.5 h, 10 µM was 99.7%. For the molecule `COc1ccc(Br)cc1S(=O)(=O)NCC(=O)Nc1ccc(F)cc1` [CBK042223], the viability at 28.5 h, 10 µM turned out to be 98.1%.

In the case of `O=C(O)Cc1ccc(OCC(=O)NCCCSc2ccccc2)cc1` [CBK296630], the viability at 28.5 h, 10 µM was found to be 91.9%. `Cc1ccc(C)c(OCC(=O)N(Cc2nc(-c3ccccc3)no2)C2CCCCC2)c1` [CBK269067]: the viability at 28.5 h, 10 µM came to 89.4%.

For `O=C(C1=C(O)C(=O)N(CCCn2ccnc2)C1c1ccncc1)c1ccccc1` (centres unmarked) [CBK264527], the viability at 28.5 h, 10 µM turned out to be 91.6%. With `O=C(/C=C/c1ccc2c(c1)OCO2)NCCSCc1c(F)cccc1Cl` [CBK265239], the viability at 28.5 h, 10 µM was 90.3%. Consider `O=C(CSc1n[nH]c(=S)s1)NCCc1ccccc1` [CBK023445], for which the viability at 28.5 h, 10 µM was 99.2%. `COc1ccccc1C1(O)CC2CCC(C1)N2` (centres unmarked) [CBK281369]: the viability at 28.5 h, 10 µM is 81.9%.

A word on the viability: it is a read-out of living cells in per cent, often relative to untreated cells.
